Test results as given in the NIST ThermoML archive (doi:10.1021/je034023f).
± gives the expanded uncertainty stated by the source.

Assay: Henry's Law constant (molality scale); of the first substance listed, at infinite dilution; mn = molality of the nth substance listed, in mol/kg
Conditions: Liquid, m1 = 0

O=C=O [carbon dioxide] + CCCCn1cc[n+](C)c1.F[P-](F)(F)(F)(F)F
Conditions	Henry's Law constant [kPa·kg/mol]
293.15 K	1200 ± 80
313.15 K	1890 ± 80
333.15 K	2700 ± 80
353.15 K	3570 ± 80
373.15 K	4470 ± 80
393.15 K	5490 ± 80
